In US4315933A, “Antibacterial amide compounds and pharmaceutical compositions containing the same” (Warner-Lambert Company, priority 1980, dated 1982):
Values after ≈ are worked out from the molar mass of the structure shown.

What was measured:
Assay in all cases: Minimal Inhibitory Concentration, in vitro
Assay type in all cases: cell-based
[1] = tested on: Entero. cloacae; settings: for MIC: Enterobacter cloacae
[2] = tested on: Pseudomonas aeruginosa #28
[3] = tested on: Serr. marces.
[4] = tested on: Kleb. pneu.
[5] = tested on: Staph. aureus S18713; settings: for MIC: Staphylococcus aureus

Compound	MIC [1] [µg/mL]	MIC [2] [µg/mL]	MIC [3] [µg/mL]	MIC [4] [µg/mL]	MIC [5] [µg/mL]	Minimal Inhibitory Concentration [2] [µg/mL]	Minimal Inhibitory Concentration [3] [µg/mL]	Minimal Inhibitory Concentration [4] [µg/mL]	Minimal Inhibitory Concentration [1]	Minimal Inhibitory Concentration [5] [µg/mL]
CC1(C)S[C@@H]2[C@H](NC(=O)[C@H](NC(=O)c3cnc(-c4ccc(NC(=O)CC#N)cc4)nc3O)c3ccc(O)cc3)C(=O)N2[C@H]1C(=O)O [Example 4, N-[2-[4-(Cyanoacetylamino)phenyl]-4-hydroxy-5-pyrimidinylcarbonyl]amoxicillin]	3.1 (≈ 4.8 µM)	0.8 (≈ 1.24 µM)	3.1 (≈ 4.8 µM)	25 (≈ 38.7 µM)	> 50	–	–	–	–	–
COCC(=O)Nc1ccc(-c2ncc(C(=O)N[C@@H](C(=O)N[C@@H]3C(=O)N4[C@@H]3SC(C)(C)[C@@H]4C(=O)O)c3ccccc3)c(O)n2)cc1 [Example 5, N-[2-[4-(Methoxyacetylamino)phenyl]-4-hydroxy-5-pyrimidinylcarbonyl]ampicillin]	12.5 (≈ 19.7 µM)	3.1 (≈ 4.88 µM)	100 (≈ 158 µM)	25 (≈ 39.4 µM)	100 (≈ 158 µM)	–	–	–	–	–
CCNC(=O)Nc1ccc(-c2ncc(C(=O)N[C@@H](C(=O)N[C@@H]3C(=O)N4[C@@H]3SC(C)(C)[C@@H]4C(=O)O)c3ccc(O)cc3)c(O)n2)cc1 [Example 8, N-[2-[4-(N-Ethylcarbamoylamino)phenyl]-4-hydroxy-5-pyrimidinylcarbonyl]amoxicillin]	6.3 (≈ 9.7 µM)	0.8 (≈ 1.23 µM)	3.1 (≈ 4.77 µM)	12.5 (≈ 19.2 µM)	> 50	–	–	–	–	–
N-[2-[4-(Acetylamino)phenyl]-4-hydroxy-5-pyrimidinylcarbonyl]amoxicillin [Example 2]	–	–	–	–	–	1.6	200	6.3	–	–
N-[2-[4-(Dichloroacetylamino)phenyl]-4-hydroxy-5-pyrimidinylcarbonyl]amoxicillin [Example 1]	–	–	–	–	–	1.6	200	12.5	1.6 µg/mL	50
N-[2-[4-(Trifluoroacetylamino)phenyl]-4-hydroxy-5-pyrimidinylcarbonyl]amoxicillin [Example 3]	–	–	–	–	–	0.8	3.1	12.5	6.3 µg/mL	> 50
N-[2-[4-[(2,2,2-Trifluoroethyl)thio]acetylamino]phenyl]-4-hydroxy-5-pyrimidinylcarbonyl]amoxicillin [Example 7]	–	–	–	–	–	–	200	50	–	50
N-[2-[4-[(2-Ethoxy-1,2-dioxoethyl)amino]phenyl]-4-hydroxy-5-pyrimidinylcarbonyl]amoxicillin [Example 6]	–	–	–	–	–	1.6	–	25	12,5 μg/ml	–
